± gives the uncertainty stated by the source.
Assay: xn = mol fraction of the nth substance listed

**Q.** For `COC(C)=O` + CCCO, which viscosity (298.15 K, 101 kPa, x1 = 0.0464) is on record?
**A.** 1.587 ± 0.014 mPa·s

**Q.** And the viscosity (298.15 K, 101 kPa, x1 = 0.0999)?
**A.** 1.295 ± 0.012 mPa·s

**Q.** What about the viscosity (298.15 K, 101 kPa, x1 = 0.1992) of the same compound?
**A.** 1.001 ± 0.009 mPa·s

**Q.** And the viscosity (298.15 K, 101 kPa, x1 = 0.3035)?
**A.** 0.794 ± 0.008 mPa·s

**Q.** What about the viscosity (298.15 K, 101 kPa, x1 = 0.4028) of the same compound?
**A.** 0.654 ± 0.006 mPa·s

**Q.** What about the viscosity (298.15 K, 101 kPa, x1 = 0.5088) of the same compound?
**A.** 0.555 ± 0.006 mPa·s

**Q.** And the viscosity (298.15 K, 101 kPa, x1 = 0.5545)?
**A.** 0.52 ± 0.005 mPa·s

**Q.** And the viscosity (298.15 K, 101 kPa, x1 = 0.6022)?
**A.** 0.49 ± 0.005 mPa·s

**Q.** What about the viscosity (298.15 K, 101 kPa, x1 = 0.7037) of the same compound?
**A.** 0.439 ± 0.005 mPa·s

**Q.** And the viscosity (298.15 K, 101 kPa, x1 = 0.7973)?
**A.** 0.401 ± 0.004 mPa·s

**Q.** What about the viscosity (298.15 K, 101 kPa, x1 = 0.8988) of the same compound?
**A.** 0.39 ± 0.004 mPa·s

**Q.** What about the viscosity (298.15 K, 101 kPa, x1 = 0.9458) of the same compound?
**A.** 0.379 ± 0.004 mPa·s

**Q.** What about the viscosity (298.15 K, 101 kPa, x2 = 0.1056) of the same compound?
**A.** 0.375 ± 0.006 mPa·s

**Q.** And the viscosity (298.15 K, 101 kPa, x2 = 0.1987)?
**A.** 0.399 ± 0.006 mPa·s

**Q.** What about the viscosity (298.15 K, 101 kPa, x2 = 0.298) of the same compound?
**A.** 0.432 ± 0.006 mPa·s

**Q.** And the viscosity (298.15 K, 101 kPa, x2 = 0.3999)?
**A.** 0.483 ± 0.006 mPa·s

**Q.** And the viscosity (298.15 K, 101 kPa, x2 = 0.5012)?
**A.** 0.55 ± 0.007 mPa·s

**Q.** And the viscosity (298.15 K, 101 kPa, x2 = 0.5963)?
**A.** 0.644 ± 0.007 mPa·s

**Q.** What about the viscosity (298.15 K, 101 kPa, x2 = 0.6991) of the same compound?
**A.** 0.793 ± 0.008 mPa·s

**Q.** What about the viscosity (298.15 K, 101 kPa, x2 = 0.7989) of the same compound?
**A.** 1.014 ± 0.009 mPa·s

**Q.** And the viscosity (298.15 K, 101 kPa, x2 = 0.8845)?
**A.** 1.306 ± 0.011 mPa·s

**Q.** And the viscosity (298.15 K, 101.33 kPa, x1 = 0.0504)?
**A.** 1.667 ± 0.055 mPa·s

**Q.** And the viscosity (298.15 K, 101.33 kPa, x1 = 0.1935)?
**A.** 1.074 ± 0.036 mPa·s

**Q.** What about the viscosity (298.15 K, 101.33 kPa, x1 = 0.3023) of the same compound?
**A.** 0.817 ± 0.028 mPa·s

**Q.** What about the viscosity (298.15 K, 101.33 kPa, x1 = 0.4167) of the same compound?
**A.** 0.654 ± 0.023 mPa·s

**Q.** What about the viscosity (298.15 K, 101.33 kPa, x1 = 0.5497) of the same compound?
**A.** 0.544 ± 0.02 mPa·s

**Q.** And the viscosity (298.15 K, 101.33 kPa, x1 = 0.6021)?
**A.** 0.509 ± 0.019 mPa·s

**Q.** What about the viscosity (298.15 K, 101.33 kPa, x1 = 0.6703) of the same compound?
**A.** 0.48 ± 0.018 mPa·s

**Q.** And the viscosity (298.15 K, 101.33 kPa, x1 = 0.7809)?
**A.** 0.439 ± 0.017 mPa·s

**Q.** What about the viscosity (298.15 K, 101.33 kPa, x1 = 0.8648) of the same compound?
**A.** 0.409 ± 0.016 mPa·s

**Q.** And the viscosity (313.15 K, 101 kPa, x1 = 0.0464)?
**A.** 1.153 ± 0.011 mPa·s

**Q.** And the viscosity (313.15 K, 101 kPa, x1 = 0.0999)?
**A.** 0.965 ± 0.009 mPa·s

**Q.** What about the viscosity (313.15 K, 101 kPa, x1 = 0.1992) of the same compound?
**A.** 0.769 ± 0.007 mPa·s

**Q.** And the viscosity (313.15 K, 101 kPa, x1 = 0.3035)?
**A.** 0.626 ± 0.006 mPa·s

**Q.** What about the viscosity (313.15 K, 101 kPa, x1 = 0.4028) of the same compound?
**A.** 0.529 ± 0.005 mPa·s

**Q.** What about the viscosity (313.15 K, 101 kPa, x1 = 0.5088) of the same compound?
**A.** 0.458 ± 0.005 mPa·s

**Q.** And the viscosity (313.15 K, 101 kPa, x1 = 0.5545)?
**A.** 0.433 ± 0.005 mPa·s

**Q.** What about the viscosity (313.15 K, 101 kPa, x1 = 0.6022) of the same compound?
**A.** 0.411 ± 0.004 mPa·s

**Q.** And the viscosity (313.15 K, 101 kPa, x1 = 0.7037)?
**A.** 0.375 ± 0.004 mPa·s

**Q.** What about the viscosity (313.15 K, 101 kPa, x1 = 0.7973) of the same compound?
**A.** 0.346 ± 0.004 mPa·s

**Q.** And the viscosity (313.15 K, 101 kPa, x1 = 0.8988)?
**A.** 0.341 ± 0.004 mPa·s

**Q.** What about the viscosity (313.15 K, 101 kPa, x1 = 0.9458) of the same compound?
**A.** 0.332 ± 0.004 mPa·s

— the CheMixHub viscosity set
